Columns and labels:
Format in all cases: cell-based
[1] = test system: human breast (MDA-MB-231) carcinoma cell line; assay: Cell viability assay in MDA-MB-231 cells; details: for cell viability / potency relative to KG5 (cell viability EC50s): MDA-MB-231; for EC50: MDA-MB-231 breast cancer cell viability assays
[2] = test system: human lung (A549) carcinoma cell line; assay: Cell viability assay in A549 cells; details: for cell viability / potency relative to KG5 (cell viability EC50s): A549; for EC50: A549 lung cancer cells
[3] = test system: human breast (T47D) carcinoma cell line; assay: Cell viability assay in T47D cells; details: for cell viability / potency relative to KG5 (cell viability EC50s): T47D; for EC50: T47D breast cancer cells

Compound | potency relative to KG5 (cell viability EC50s) [1] | EC50 [1] | potency relative to KG5 (cell viability EC50s) [2] | EC50 [2] | potency relative to KG5 (cell viability EC50s) [3] | EC50 [3] | cell viability [1] | cell viability [2] | cell viability [3]
CSc1nc(N)cc(Oc2ccc(-c3nnc(Nc4cc(C)ccc4C)[nH]3)cc2)n1 [H3-3, 6-(4-{5-[(2,5-dimethylphenyl)amino]-4H-1,2,4-triazol-3-yl}phenoxy)-2-(methylsulfanyl)pyrimidin-4-amine] | more potent than KG5 | approach picomolar (pM) EC50s | more potent than KG5 | approach picomolar (pM) EC50s | more potent than KG5 | approach picomolar (pM) EC50s | decrease cell viability | decrease cell viability | decrease cell viability
CSc1nc(N)cc(Oc2ccc(-c3nnc(Nc4cc(C)cc(C)c4)[nH]3)cc2)n1 [H3-7, 6-(4-{5-[(3,5-dimethylphenyl)amino]-4H-1,2,4-triazol-3-yl}phenoxy)-2-(methylsulfanyl)pyrimidin-4-amine] | more potent than KG5 | approach picomolar (pM) EC50s | more potent than KG5 | approach picomolar (pM) EC50s | more potent than KG5 | approach picomolar (pM) EC50s | decrease cell viability | decrease cell viability | decrease cell viability
CSc1nc(N)cc(Oc2ccc(-c3nnc(Nc4cccc(C)c4C)[nH]3)cc2)n1 [H3-11, 6-(4-{5-[(2,3-dimethylphenyl)amino]-4H-1,2,4-triazol-3-yl}phenoxy)-2-(methylsulfanyl)pyrimidin-4-amine] | more potent than KG5 | approach picomolar (pM) EC50s |  |  |  |  | decrease cell viability |  | 

Now from value to compound, other results behind:

potency relative to KG5 (cell viability EC50s) [1] | EC50 [1] | potency relative to KG5 (cell viability EC50s) [2] | EC50 [2] | potency relative to KG5 (cell viability EC50s) [3] | EC50 [3] | Compound | cell viability [1] | cell viability [2] | cell viability [3]
more potent than KG5 | approach picomolar (pM) EC50s | more potent than KG5 | approach picomolar (pM) EC50s | more potent than KG5 | approach picomolar (pM) EC50s | CSc1nc(N)cc(Oc2ccc(-c3nnc(Nc4cccc5c4CCCC5)[nH]3)cc2)n1 [H3-21, 2-(methylsulfanyl)-6-{4-[5-(5,6,7,8-tetrahydronaphthalen-1-ylamino)-4H-1,2,4-triazol-3-yl]phenoxy}pyrimidin-4-amine] | decrease cell viability | decrease cell viability | decrease cell viability
more potent than KG5 | approach picomolar (pM) EC50s |  |  |  |  | CCOc1nc(N)cc(Oc2ccc(-c3nnc(Nc4cccc(C(F)(F)F)c4)[nH]3)cc2)n1 [K1-72, 2-ethoxy-6-[4-(5-{[3-(trifluoromethyl)phenyl]amino}-4H-1,2,4-triazol-3-yl)phenoxy]pyrimidin-4-amine] | decrease cell viability |  | 
more potent than KG5 | approach picomolar (pM) EC50s |  |  |  |  | CSc1nc(N)cc(Oc2ccc(-c3nnc(Nc4ccc(C)c(C)c4)[nH]3)cc2)n1 [H3-9, 6-(4-{5-[(3,4-dimethylphenyl)amino]-4H-1,2,4-triazol-3-yl}phenoxy)-2-(methylsulfanyl)pyrimidin-4-amine] | decrease cell viability |  | 

Source: US20130266636A1, “METHODS FOR BLOCKING CELL PROLIFERATION AND TREATING DISEASES AND CONDITIONS RESPONSIVE TO CELL GROWTH INHIBITION” (THE REGENTS OF THE UNIVERSITY OF CALIFORNIA, priority 2010, published 2013)
